Values joined by “and” are separate entries in the source; they are usually repeats but may differ in a detail not shown here. Equal entries are not always repeated.
Assays:
[1] = tested on: neurons in the motor cortex layer 2/3; experiment: Calcium imaging of layer 2/3 of the motor cortex during single pellet reaching task training; type: in vivo, C57BL/6 mice; conditions: for activated population activity (peak activity minus baseline activity): C57BL/6 mice injected with L365,260 (0.4 mg/kg i.p.); for pairwise Hausdorff distance of trajectories / trial-to-trial population activity correlation (Pearson correlation coefficient): C57BL/6 mice injected with L365,260
Protocol: (§1) The task has two periods, shaping and training. […] Only attempts by the dominant hand are counted.
The surface virus infusion process for the calcium imaging is performed as described previously with mild modification^5. A wide-tip glass pipette is prepared by a micropipette puller and then cut, polished, and flame-treated to make it even and smooth. Mice are […] injected with dexamethasone (0.2 mg/kg, s.c.) and carprofen (5 mg/kg, s.c.) to protect the brain from swelling and inflammation. Three hours later, mice are anesthetized with pentobarbital. The periosteum covered on the skull is removed, cleaned, and dried with 100% alcohol to prevent the skull and tissues from growing. A 3×3 mm^2 window above the motor cortex contralateral to the dominant hand is opened with a hand drill, and the bone debris is carefully removed with fine forceps. After that, the dura around the injection area is removed (open a dura hole of about 1 mm^2) to expose the pial tissue for virus infusion. The tip of the pipette tightly covered the brain surface by lowering 400-500 μm, and 0.6 μl virus is infused at the speed of 0.06 μl/min. A 3×3 cover glass (thickness, around 150 μm) is attached to the brain surface, and gentle pressure is applied to keep the cover glass at the level same as the skull. The edge of the cover glass is sealed with superglue. After the glue is totally hardened, the skin is stretched back and sutured.
2-3 weeks after cranial window implantation, the scalp over the skull is totally removed with surgical scissors. […] The cover glass surface is gently cleaned with Ringer's solution and lens paper, and the regrowth of periosteum on the skull is removed with fine forceps. Before baseplate implantation, the skull is dried with 100% alcohol, covered with Metbondglue, and a thick layer of dental acrylic except for the cover glass for observation.
The LED is turned on and the focal distance of the electrowetting lens is adjusted to 0 on the software. The position of the miniscope is adjusted until the brain tissue is observed in the data acquisition system. Dental acrylic is used to fix the baseplate to the acrylic cap covering the skull around the window. Once the dental acrylic has hardened, the miniscope is removed, and a metal cap is attached to the baseplate to protect the cover glass window.
After the implantation of the baseplate, a miniscope model is attached to the baseplate, and the mouse is placed in the chamber to acclimate to the weight of the miniscope for 20 minutes for 3 days. The LED laser and focal plate are slightly adjusted until the cells with fluorescent protruded from the background. A web camera is also connected to the data acquisition software and recorded the behavior movement of the animal simultaneously. An imaging field of about 1.0×1.0 mm^2 (resolution: 608×608 pixels) video at approximately 10 min long is recorded. To clearly figure out the role of CCK played in the neuronal plasticity of the motor cortex from CCK^−/− mice, C57BL/6 mice as well as C57BL/6 mice that intraperitoneal injection of CCKBR antagonist, L365,260 (0.4 mg/kg, Cat #2767, Bio-Techne, https://www.bio-techne.com, USA). Raw AVI videos are firstly spatially down-sample by two folds to reduce the size of the videos by Fiji (Image J, https://imagej.net/imagej-wiki-static/Fiji/Downloads, USA). Then a MATLAB algorithm, NoRMCorre, is applied for piecewise rigid motion correction before data analysis. The calcium signals are extracted with the MATLAB code of Constrained Nonnegative Matrix Factorization for microEndoscopic (CNMF-E) (code availability: https://github.com/zhoupc/CNMF_E) 6. The scaled fluorescent calcium signal overtime is extracted as C_raw. The raw data is then deconvolved. […] Timestamps from both the behavior videos and the calcium imaging videos are aligned to find out the time window when the mouse perform the reaching task. […]

[2] = molecular target: T1, CCKBRs in the motor cortex (Mus musculus, UniProt P56481); experiment: Single pellet reaching task with CCKBR antagonist injected into the motor cortex; type: in vivo, C57BL/6 mice; conditions: for success rate: 1 μl 20 μM into motor cortex via cannula before training
T1 construct: from tissue; host or cells: motor cortex of living C57BL/6 mice
T1 sequence (P56481 1-453): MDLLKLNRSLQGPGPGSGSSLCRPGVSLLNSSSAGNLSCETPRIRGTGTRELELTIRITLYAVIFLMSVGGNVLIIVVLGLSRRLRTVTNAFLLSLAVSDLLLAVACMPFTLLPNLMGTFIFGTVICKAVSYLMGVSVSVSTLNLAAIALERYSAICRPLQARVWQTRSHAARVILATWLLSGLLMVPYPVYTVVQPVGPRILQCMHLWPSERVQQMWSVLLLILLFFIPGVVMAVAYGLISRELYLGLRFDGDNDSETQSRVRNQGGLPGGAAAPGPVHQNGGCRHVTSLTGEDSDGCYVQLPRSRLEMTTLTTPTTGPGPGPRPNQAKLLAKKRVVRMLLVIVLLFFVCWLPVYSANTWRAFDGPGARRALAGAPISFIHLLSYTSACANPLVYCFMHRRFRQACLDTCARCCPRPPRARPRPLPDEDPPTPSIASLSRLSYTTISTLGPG
Protocol: as §1
C57BL/6 mice are implanted a cannula in the motor cortex (coordinates: AP, 1.4 mm, ML, −/+1.6 mm, DV, 0.2 mm) contralateral to the dominant hand of the mice, followed by three days of recovery. Mice are grouped into antagonist and vehicle groups. L365,260 (CCKBR antagonist) (1 μl, 20 μM, Cat #2767, Bio-Techne, https://www.bio-techne.com/, USA) or vehicle (0.1% DMSO dissolved in ACSF) is injected into the motor cortex through the cannula with the flow rate of 100 nl/min pumped by a syringe pump (Hamilton, http://hamiltoninstrument.com, USA), before the mice are placed into the chamber for the single pellet reaching task training.

[3] = tested on: CCK^−/− mice; experiment: Rescue of motor learning ability of CCK^−/− mice with CCK4, single pellet reaching task; type: in vivo; conditions: for success rate: CCK4 0.45 mg/kg i.p. every day before training; for miss rate: CCK4 0.45 mg/kg i.p.
Source text: as §1
CCK4, a tetrapeptide derived from the peptide of CCK is selected as a potential drug to rescue the motor learning defect caused by the lack of CCK, because CCK4 remains the function to activate the CCK receptor but has a much smaller molecule than CCK8s or CCK58, making it transmit through the brain-blood barrier easily and smoothly^10-11. Therefore, intraperitoneal injection of the CCK4 is a simple and easily available way to rescue CCK lack caused motor learning defects. After shaping, CCK^−/− mice are injected intraperitoneally with CCK4 (0.45 mg/kg, Cat #ab141328, Abcam, https://securedrtest.abcam.com, UK) or vehicle before training every day.

[4] = tested on: motor cortex brain slices from the CCK^−/− mice; experiment: Brain slice electrophysiology, fEPSP/LTP after HFS in motor cortex slices; type: cell-based; conditions: CCK4 500 nM, % of baseline
Protocol: The slice electrophysiology experiment is carried out following the methods reported previously^9. In the experiments, 6-8 weeks old C57BL/6 or CCK^−/− mice are anesthetized with isoflurane in a small chamber. The mouse head is cut, and the brain is rapidly removed and put into an oxygenated (95% O2-5% CO2) artificial cerebral spinal fluid (ACSF) cold bath containing 26 mM of NaHCO3, 2 mM of CaCl2), 1.25 mM of KH2PO4, 1.25 mM of MgSO4, 124 mM of NaCl, 3 mM of KCl and 10 mM of glucose, pH 7.35-7.45. The brain is sectioned from the middle line into two hemispheres. The portions with the brain areas of the motor cortex are trimmed and glued on the ice-cold stage of a vibrating tissue slicer (VT1000S, Leica, https://www.gmi-inc.com/product/leica-vt1000s-microtome, Germany). Coronal sections of slices containing the motor cortex (300 μm thick) are trimmed and gently transferred into an ACSF containing chamber, which is put in a water bath at 28° C. and oxygen blowing continuously. […]
After recovery, the motor cortex slice is covered by the recording electrodes. […] The electrophysiological data are extracted and analyzed with offline software, Mobius software. For quantification of the LTP data, the initial amplitudes of fEPSPs are normalized and expressed as percentage changes over the averaged baseline activity. […]

In the case of `Cc1cccc(NC(=O)N[C@@H]2N=C(c3ccccc3)c3ccccc3N(C)C2=O)c1` [L365,260], the “activated population activity (peak activity minus baseline activity)” value ([1]; Day 1) is reported as 0.0218±0.0094, the “activated population activity (peak activity minus baseline activity)” value ([1]; Day 6) is reported as 0.0354±0.0080 and the “pairwise Hausdorff distance of trajectories” value ([1]; Day 1) is reported as 0.7012±0.0594 cm. The “trial-to-trial population activity correlation (Pearson correlation coefficient)” value ([1]; Day 1) was 0.12±0.07, the “pairwise Hausdorff distance of trajectories” value ([1]; Day 6) was 0.6712±0.0659 cm and the “trial-to-trial population activity correlation (Pearson correlation coefficient)” value ([1]; Day 6) was 0.12±0.05. For the same compound, the success rate ([2]; Day 3) was 16.80±2.83%, the success rate ([2]; Day 4) was 18.16±3.12% and the “success rate of pellet retrieval, change through the 6-day training period” value ([2]; infused into motor cortex every day before training) was “not improved”. For the same compound, the “drop rate, change Day 1 vs. Day 5” value ([2]; motor cortex injection) was “no significant changes”, the miss rate ([2]; motor cortex injection, Day 1) was 27.34%±9.85% and the “number of miss, change with learning” value ([2]; motor cortex injection, Day 1 vs. Day 5) was “no significant decrease”. For the same compound, the miss rate ([2]; motor cortex injection, Day 5) was 24.75%±2.34% and the no-grasp rate ([2]; motor cortex injection, Day 5) was 34.69%±4.12%.
For Trp-Met-Asp-Phe-NH2 [CCK4], the success rate ([3]; Day 1) was 19.17%±3.03%, the success rate ([3]; Day 5, 0.45 mg/kg) was 30.58%±4.18% and 30.51%±4.18% and the success rate ([3]; Day 6) was 31.50%±4.43%. The miss rate ([3]; Day 1) was 25.47%±4.03%, the miss rate ([3]; Day 5) was 13.13%±2.80 and the brain-blood barrier passage ([3]; concluded from behavioural rescue after i.p. injection) was “could cross the brain-blood barrier”. The “average normalized fEPSP amplitude” value ([4]; after HFS (50-60 min)) was 118.89%±6.09% and the “average normalized fEPSP amplitude” value ([4]; before HFS (−10-0 min)) was 100.28%±0.47%.
